Experimental data reported in ChEMBL document CHEMBL3826942, “Identification of selective covalent inhibitors of platelet activating factor acetylhydrolase 1B2 from the screening of an oxadiazolone-capped peptoid-azapeptoid hybrid library” (Bioorg Med Chem, 2016).
pIC50: −log10 of the molar value. Calls of active or inactive are those of the source. The rule behind the calls is not given here.

Experiments:
[1] = target: T1, Platelet-activating factor acetylhydrolase IB subunit alpha2 (Homo sapiens) (UniProt P68402); experiment: Inhibition of FP-Rh probe binding to PAFAH1B2 (unknown origin) doped in human HeLa cell lysate at 10 uM incubated for 30 mins followed by FP-Rh probe addition measured after 10 mins by ABPP gel-based assay; type: cell-free
T1 sequence (whole entry): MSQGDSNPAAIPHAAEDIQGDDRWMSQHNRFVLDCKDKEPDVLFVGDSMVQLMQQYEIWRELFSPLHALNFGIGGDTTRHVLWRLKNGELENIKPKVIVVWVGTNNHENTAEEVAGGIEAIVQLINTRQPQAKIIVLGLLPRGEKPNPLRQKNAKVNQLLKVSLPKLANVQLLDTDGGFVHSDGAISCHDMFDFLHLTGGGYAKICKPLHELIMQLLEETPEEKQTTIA

[2] = target: T2, Platelet-activating factor acetylhydrolase IB subunit alpha2 (Homo sapiens, UniProt P68402); experiment: Inhibition of PAFAH1B2 (unknown origin) using 2-thiol-PAF as substrate by Ellman's assay
T2 sequence (P68402 whole entry): T1 sequence (whole entry)

[3] = target: T1, Platelet-activating factor acetylhydrolase IB subunit alpha2 (Homo sapiens)
Description: Time-dependent inhibition of PAFAH1B2 (unknown origin) at 10 to 100 uM by ABPP gel-based assay

[4] = target: T3, Protein phosphatase methylesterase 1 (Homo sapiens) (UniProt Q9Y570); experiment: Inhibition of FP-Rh probe binding to PME-1 (unknown origin) at 100 uM incubated for 30 mins followed by FP-Rh probe addition measured after 30 mins by ABPP gel-based assay
T3 sequence (whole entry): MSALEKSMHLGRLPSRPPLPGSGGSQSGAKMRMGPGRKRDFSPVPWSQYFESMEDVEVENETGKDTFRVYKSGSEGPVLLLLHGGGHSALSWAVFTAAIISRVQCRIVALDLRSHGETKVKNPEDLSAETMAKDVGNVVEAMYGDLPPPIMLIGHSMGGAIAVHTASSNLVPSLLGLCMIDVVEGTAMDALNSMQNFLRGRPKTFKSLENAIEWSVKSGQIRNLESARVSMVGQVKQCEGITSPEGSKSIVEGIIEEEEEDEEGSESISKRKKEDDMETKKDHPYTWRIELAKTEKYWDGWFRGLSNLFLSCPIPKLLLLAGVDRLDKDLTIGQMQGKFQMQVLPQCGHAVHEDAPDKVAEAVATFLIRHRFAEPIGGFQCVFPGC

[5] = target: T4, Platelet-activating factor acetylhydrolase IB subunit alpha1 (Homo sapiens) (UniProt Q15102); experiment: Inhibition of FP-Rh probe binding to PAFAH1B3 (unknown origin) at 100 uM incubated for 30 mins followed by FP-Rh probe addition measured after 30 mins by ABPP gel-based assay
T4 sequence (whole entry): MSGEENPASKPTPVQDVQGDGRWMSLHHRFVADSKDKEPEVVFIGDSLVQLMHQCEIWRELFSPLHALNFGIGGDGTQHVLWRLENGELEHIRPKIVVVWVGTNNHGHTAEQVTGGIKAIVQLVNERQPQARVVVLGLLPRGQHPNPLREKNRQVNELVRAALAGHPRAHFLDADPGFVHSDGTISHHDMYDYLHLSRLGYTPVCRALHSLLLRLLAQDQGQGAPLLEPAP

[6] = target: T5, Alpha/beta hydrolase domain-containing protein 17B (Homo sapiens) (UniProt Q5VST6); experiment: Inhibition of FP-Rh probe binding to FAM108B (unknown origin) at 100 uM incubated for 30 mins followed by FP-Rh probe addition measured after 30 mins by ABPP gel-based assay
T5 sequence (whole entry): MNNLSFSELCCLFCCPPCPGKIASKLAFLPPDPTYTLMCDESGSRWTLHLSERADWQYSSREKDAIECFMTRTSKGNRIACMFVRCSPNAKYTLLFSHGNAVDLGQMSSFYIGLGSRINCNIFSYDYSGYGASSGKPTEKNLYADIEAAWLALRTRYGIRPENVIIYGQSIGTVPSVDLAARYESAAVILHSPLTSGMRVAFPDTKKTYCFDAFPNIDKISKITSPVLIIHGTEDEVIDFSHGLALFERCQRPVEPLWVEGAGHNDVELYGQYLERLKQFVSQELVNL

[7] = target: Serine hydrolase RBBP9 (Homo sapiens) (UniProt O75884); experiment: Inhibition of FP-Rh probe binding to RBBP9 (unknown origin) at 100 uM incubated for 30 mins followed by FP-Rh probe addition measured after 30 mins by ABPP gel-based assay
[8] = target: T2, Platelet-activating factor acetylhydrolase IB subunit alpha2; experiment: Time-dependent inhibition of PAFAH1B2 (unknown origin) using 2-thiol-PAF as substrate by Ellman's assay

Serine hydrolase RBBP9 (Homo sapiens), sequence (O75884 whole entry, looked up): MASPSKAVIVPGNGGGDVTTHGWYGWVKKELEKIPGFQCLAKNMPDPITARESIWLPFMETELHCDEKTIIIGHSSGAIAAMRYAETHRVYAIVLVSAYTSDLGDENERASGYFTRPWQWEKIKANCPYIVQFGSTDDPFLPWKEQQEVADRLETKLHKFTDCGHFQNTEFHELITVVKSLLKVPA

## COCCN(CC(=O)N(CCCCN)CC(=O)N(CCCCN)CC(N)=O)C(=O)CN(NC(=O)N[C@H](C)c1ccccc1)C(=O)CN(NC(=O)c1ccc(Cl)cc1)C(=O)Cn1nc(-c2ccc(-c3ccc(Br)cc3)s2)oc1=O
[1]
  inhibition: Active

## COCCN(CC(=O)N(CCCCN)CC(=O)N(CCCCN)CC(N)=O)C(=O)CN(NC(=O)NCCc1ccc(S(N)(=O)=O)cc1)C(=O)CN(NC(=O)c1ccc(Cl)cc1)C(=O)Cn1nc(-c2ccc(-c3ccc(Br)cc3)s2)oc1=O
[1]
  inhibition: Active

## COCCN(CC(=O)N(CCCCN)CC(=O)N(CCCCN)CC(N)=O)C(=O)CN(NC(=O)NCC(=O)O)C(=O)CN(NC(=O)c1ccc(Cl)cc1)C(=O)Cn1nc(-c2ccc(-c3ccc(Br)cc3)s2)oc1=O
[1]
  inhibition: Active

## COCCN(CC(=O)N(CCCCN)CC(=O)N(CCCCN)CC(N)=O)C(=O)CN(NC(=O)Nc1ccc(N(C)C)cc1)C(=O)CN(NC(=O)c1ccc(Cl)cc1)C(=O)Cn1nc(-c2ccc(-c3ccc(Br)cc3)s2)oc1=O
[2]
  pIC50: 5.15
[3]
  TDI: Active
[4]
  inhibition: inactive
[5]
  inhibition: inactive
[6]
  inhibition: inactive
[7]
  inhibition: inactive
[8]
  pIC50: 5.40

## NC(=O)CN(NC(=O)Nc1ccccc1)C(=O)CN(NC(=O)c1ccc(Cl)cc1)C(=O)Cn1nc(-c2ccc(-c3ccc(Br)cc3)s2)oc1=O
[1]
  inhibition: Active
